Data from US20200048611A1, “ENGINEERED PLATFORM FOR CONNECTED MICROPATTERNED CARDIAC TISSUES” (Wisconsin Alumni Research Foundation, priority 2018, published 2020).

Test system: patterned hPSC-CMs
Experiment: beta-adrenergic stimulation of micropatterned hPSC-CMs with isoproterenol (contraction, digital image correlation)
Type: cell-based, human
Conditions: patterned CMs on 10 kPa PDMS, 1 μM isoproterenol
From the text: In this Example, cardiomyocytes were differentiated from the 19-9-11 iPSC line and purified using lactate media. 10 kPa PDMS substrates mimicking the elasticity of the healthy myocardium were made by blending together commercially available Sylgard 184 and 527. […] Statistical analyses were done using one-way ANOVA with post hoc Tukey test.

Question: Which rate of contraction does the source give for CC(C)NCC(O)c1ccc(O)c(O)c1 (centres unmarked) [isoproterenol] here?
Answer: Its rate of contraction is “increase in the rate of contraction”.

Question: What about the “amplitude of contraction (x-displacement)” value (versus baseline normal contraction) of the same compound?
Answer: Its value is “amplitude of contraction also increased from baseline”.
